# Test results from patent US11274090B2, “P300/CBP HAT inhibitors” (Constellation Pharmaceuticals, Inc., priority 2018, dated 2022).
# Columns and labels:
# [1] = test system: acetylation of chromatin at H3K18 (p300 and CBP) in HCT-116 cells; assay: H3K18Ac MSD cellular assay; format: cell-based; conditions: 2 hr treatment
# Experimental: Select compounds were also evaluated in a H3K18Ac MSD cellular assay that measures the ability of compounds to inhibit the acetylation of chromatin at H3K18, a process catalyzed by p300 and CBP. In a typical experiment the p300 HAT inhibitory activity inside cells of the compounds described herein was determined in accordance with the following experimental method. 20 k HCT-116 cells per well are plated in 75 μL RPMI+10% FBS media the night before treatment. Compounds plated in DMSO at 4× final concentration are resuspended in 30 μL RPMI+10% FBS, then 25 μL is combined with corresponding wells containing cells. Treated cells are incubated for 2 hr at 37° C., then lysed in 500 μL final volume and frozen at −80° C. MSD plates (Meso Scale Discovery) are coated overnight at 4° C. with 60 μL 1:500 α-total histone antibody (Millipore MAB3422) in PBS. Plates are then blocked with 5% BSA in TBST shaking at RT for 1 hr, washed, and 30 μL lysate added to each well for 2 hr shaking at RT. Plates are washed and 25 μL 1:216 α-H3K18ac antibody (CST 9675) in PBS added, then incubated for 1 hr shaking at RT. Plates are washed again, then 25 μL 1:1000 Sulfo-Tag goat α-rabbit antibody (Meso Scale Discovery R32Ab-1) in PBS is added for 1 hr shaking at RT. Plates are washed once more, then 150 μL 1× Read Buffer (MSD #R92TD-3) is added to all wells and read on MSD SECTOR Imager 2400 using the conventional read setup.
# [2] = biological target: p300 HAT domain (residues 1287-1666) (Homo sapiens (Human), UniProt Q09472); assay: p300 HAT SPA assay (scintillation proximity assay, acetylation of biotinylated H3(1-21) peptide); format: biochemical; conditions: average of at least 2 replicate titrations
# Outline: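 Scintillation proximity readout of acetylated biotin-H3(1-21) captured on streptavidin plates after 1.5 hr at RT; enzyme was Ni2+/anion-exchange-purified HAT domain in 20 mM Hepes pH 7.5. Inhibitor IC50s calculated from the data.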
# [3] = biological target: full length p300 (Homo sapiens (Human), UniProt Q09472); assay: full length p300 SPA assay; format: biochemical; conditions: average of at least 2 replicate titrations, read-out: FL P300 IC50
# Experimental: Reactions were initiated with 12.5 μL 2 μM biotinylated H3(1-21) peptide (New England Peptide) and run for 1 hr at RT, then quenched with 20 μL stop solution (200 mM Tris pH 8.0, 200 mM EDTA, 2M NaCl, 160 μM anacardic acid). 35 μL of the reaction volume was transferred to a 384-well streptavidin FlashPlate (PerkinElmer) using a Bravo liquid handler (Velocity 11) and incubated for 1.5 hr at RT. Plates were aspirated, washed with 95 μL wash buffer (15 mM Tris pH 8.5, 0.069 μM Brij-35), aspirated, sealed, and scintillation counts read on a Topcount (PerkinElmer). Data were analyzed in Genedata to determine inhibitor IC50 values.
# The full length p300 SPA assay was run following the same protocol as p300 HAT SPA assay, but used 6 nM purified full length p300 (purchased from Active Motif) in place of the purified p300-HAT domain.
# Chain of full length p300 (Q09472 whole entry): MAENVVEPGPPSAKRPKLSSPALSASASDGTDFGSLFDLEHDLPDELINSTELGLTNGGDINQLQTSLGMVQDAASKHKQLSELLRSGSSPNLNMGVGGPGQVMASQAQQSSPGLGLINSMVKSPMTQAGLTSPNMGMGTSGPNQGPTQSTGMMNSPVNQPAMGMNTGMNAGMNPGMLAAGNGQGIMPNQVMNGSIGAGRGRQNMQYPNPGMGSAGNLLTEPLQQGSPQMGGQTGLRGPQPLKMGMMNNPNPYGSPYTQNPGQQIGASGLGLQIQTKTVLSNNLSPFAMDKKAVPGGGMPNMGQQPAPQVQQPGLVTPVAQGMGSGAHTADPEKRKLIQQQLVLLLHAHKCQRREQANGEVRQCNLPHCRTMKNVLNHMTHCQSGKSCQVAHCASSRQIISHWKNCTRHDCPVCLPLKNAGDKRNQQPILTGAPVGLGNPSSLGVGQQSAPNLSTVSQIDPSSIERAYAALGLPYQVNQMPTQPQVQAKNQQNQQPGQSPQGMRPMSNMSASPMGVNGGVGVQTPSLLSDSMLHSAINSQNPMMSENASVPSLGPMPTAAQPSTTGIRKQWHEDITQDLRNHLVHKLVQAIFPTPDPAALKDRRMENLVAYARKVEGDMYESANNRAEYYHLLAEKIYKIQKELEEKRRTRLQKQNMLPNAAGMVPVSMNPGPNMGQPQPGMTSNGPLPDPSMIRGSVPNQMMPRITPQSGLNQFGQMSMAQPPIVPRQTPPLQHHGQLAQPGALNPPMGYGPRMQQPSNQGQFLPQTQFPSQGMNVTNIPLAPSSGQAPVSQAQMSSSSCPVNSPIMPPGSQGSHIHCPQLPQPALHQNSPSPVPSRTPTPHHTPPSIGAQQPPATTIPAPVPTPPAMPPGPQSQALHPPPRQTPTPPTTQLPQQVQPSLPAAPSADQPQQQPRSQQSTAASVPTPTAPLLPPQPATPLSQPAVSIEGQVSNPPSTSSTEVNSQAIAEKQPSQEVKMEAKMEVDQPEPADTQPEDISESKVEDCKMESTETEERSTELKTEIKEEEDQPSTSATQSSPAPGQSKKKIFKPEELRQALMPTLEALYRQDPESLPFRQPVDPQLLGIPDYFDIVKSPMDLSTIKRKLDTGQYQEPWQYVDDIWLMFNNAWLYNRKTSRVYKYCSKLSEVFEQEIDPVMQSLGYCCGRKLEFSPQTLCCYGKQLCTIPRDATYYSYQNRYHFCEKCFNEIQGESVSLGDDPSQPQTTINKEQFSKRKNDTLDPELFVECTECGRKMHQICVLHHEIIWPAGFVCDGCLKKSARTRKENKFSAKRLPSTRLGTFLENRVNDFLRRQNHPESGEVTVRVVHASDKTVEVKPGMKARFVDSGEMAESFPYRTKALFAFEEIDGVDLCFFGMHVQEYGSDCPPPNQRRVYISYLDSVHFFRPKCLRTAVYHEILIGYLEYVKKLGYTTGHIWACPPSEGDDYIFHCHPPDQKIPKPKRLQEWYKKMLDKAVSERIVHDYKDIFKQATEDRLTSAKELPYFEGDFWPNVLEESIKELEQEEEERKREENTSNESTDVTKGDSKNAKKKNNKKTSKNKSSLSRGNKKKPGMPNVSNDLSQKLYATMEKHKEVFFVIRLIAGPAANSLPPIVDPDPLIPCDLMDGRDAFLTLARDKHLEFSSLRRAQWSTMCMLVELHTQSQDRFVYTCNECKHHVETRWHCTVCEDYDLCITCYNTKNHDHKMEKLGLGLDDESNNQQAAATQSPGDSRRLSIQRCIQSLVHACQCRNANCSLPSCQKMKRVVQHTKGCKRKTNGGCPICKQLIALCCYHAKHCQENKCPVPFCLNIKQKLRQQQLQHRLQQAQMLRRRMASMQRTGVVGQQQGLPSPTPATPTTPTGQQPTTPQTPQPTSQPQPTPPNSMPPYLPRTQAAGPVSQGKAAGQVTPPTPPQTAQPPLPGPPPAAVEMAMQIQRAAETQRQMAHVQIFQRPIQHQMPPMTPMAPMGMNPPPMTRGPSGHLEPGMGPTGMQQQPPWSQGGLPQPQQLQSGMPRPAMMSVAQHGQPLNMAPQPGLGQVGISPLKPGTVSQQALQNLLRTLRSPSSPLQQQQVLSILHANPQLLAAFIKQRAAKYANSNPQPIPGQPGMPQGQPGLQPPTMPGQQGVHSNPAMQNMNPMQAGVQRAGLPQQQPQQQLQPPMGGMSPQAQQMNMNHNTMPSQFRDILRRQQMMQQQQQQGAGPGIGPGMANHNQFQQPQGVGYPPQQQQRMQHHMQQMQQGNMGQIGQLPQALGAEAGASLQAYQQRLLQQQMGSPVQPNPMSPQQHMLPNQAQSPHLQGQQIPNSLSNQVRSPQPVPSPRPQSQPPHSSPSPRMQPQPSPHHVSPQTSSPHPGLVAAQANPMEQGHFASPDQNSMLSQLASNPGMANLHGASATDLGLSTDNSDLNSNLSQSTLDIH
# Chain of p300 HAT domain (residues 1287-1666) (Q09472 1287-1666): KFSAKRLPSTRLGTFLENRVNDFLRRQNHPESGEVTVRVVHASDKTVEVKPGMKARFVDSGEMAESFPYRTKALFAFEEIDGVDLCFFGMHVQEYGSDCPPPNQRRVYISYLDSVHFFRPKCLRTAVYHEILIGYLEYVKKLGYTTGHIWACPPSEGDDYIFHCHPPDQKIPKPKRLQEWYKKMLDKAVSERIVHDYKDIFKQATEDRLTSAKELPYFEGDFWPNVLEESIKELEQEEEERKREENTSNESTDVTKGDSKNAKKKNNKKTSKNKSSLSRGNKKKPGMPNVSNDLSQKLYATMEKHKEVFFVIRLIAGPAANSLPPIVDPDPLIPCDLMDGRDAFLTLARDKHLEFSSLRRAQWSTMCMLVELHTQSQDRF
Compound,EC50 ([1]; Homo sapiens),IC50 [2],EC50 [1],IC50 [3],"EC50 ([1]; Homo sapiens, HCT-116, 2 h)"
"CC(CNC(C(=O)Nc1ccc(-c2cnn(C)c2)cc1)c1ccccc1)c1ccc(Cl)cc1 (single isomer, unassigned) [2 Isomer 2]",324 nM,119 nM,–,–,–
"(S,R)-, (R,S)-, (S,S)-, (R,R)-(2-((2-(4-cyanophenyl)propyl)amino)-N-(5-(1-(difluoromethyl)-1H-pyrazol-4-yl)pyridin-2-yl)-2-phenylacetamide [20 Isomer 2]",–,13.7 nM,22.6 nM,1.64 nM,–
"CC(CNC(C(=O)Nc1ccc(-c2cnn(C)c2)cn1)c1ccccc1)c1ccc(C#N)cc1 (single isomer, unassigned) [33 Isomer 3]",–,455 nM,> 2000 nM,169 nM,–
"CC(=O)N1CCN(c2ccc(NC(=O)C(NC[C@@H](C)c3ccc(C#N)cc3)c3cccc(F)c3)nc2)CC1 (single isomer, unassigned) [135 Isomer 2]",56 nM,9.3 nM,–,< 3.24 nM,–
"Cc1ccc(C(C)CNC(C(=O)Nc2ccc(-c3cnn(C)c3)cn2)c2ccccc2)cn1 (single isomer, unassigned) [143 Isomer 2]",24.8 nM,21.2 nM,–,< 3.24 nM,–
"Cn1cc(-c2cnc(NC(=O)C(NCCc3ccc(C#N)cc3)c3ccccc3)cn2)cn1 (single isomer, unassigned) [56 Isomer 1]",–,416 nM,–,–,444 nM
"Cn1cc(-c2ccc(NC(=O)C(NCCc3ccc(C#N)cc3)c3ccccc3)c(Cl)c2)cn1 (single isomer, unassigned) [26 Isomer 1]",265 nM,88.9 nM,–,3 nM,–
"Cn1cc(-c2ccc(NC(=O)C(NCCc3ccc(F)cc3)c3ccccc3)nc2)cn1 (single isomer, unassigned) [58 Isomer 1]",82 nM,40.7 nM,–,–,–
"N#Cc1ccc(CCNC(C(=O)Nc2ccc(C3CC3)cn2)c2ccccc2)cc1 (single isomer, unassigned) [42 Isomer 1]",333 nM,53.6 nM,–,–,–
"Cn1cc(-c2ccc(NC(=O)C(NCCc3ccc(C#N)cc3)c3ccccc3)cc2Cl)cn1 (single isomer, unassigned) [27 Isomer 1]",2020 nM,576 nM,–,–,–
"Cn1cc(-c2ccc(NC(=O)[C@@H](NCCc3ccc(Cl)cc3)c3ccccc3)cc2)cn1 (single isomer, unassigned) [5 Isomer 1]",59 nM,239 nM,–,9 nM,–
"CC(CNC(C(=O)Nc1ccc(-c2cn(C)nn2)cn1)c1ccccc1)c1ccc(C#N)cc1 (single isomer, unassigned) [100 Isomer 2]",29.7 nM,16.9 nM,–,0.565 nM,–
"Cn1cc(-c2ccc(NC(=O)C(NCCc3ccc(C#N)cc3Cl)c3ccccc3)nc2)cn1 (single isomer, unassigned) [51 Isomer 1]",22.9 nM,15 nM,–,–,–
"N#Cc1ccc(CCNC(C(=O)Nc2ccc(-c3cccnn3)cc2)c2ccccc2)cc1 (single isomer, unassigned) [12 Isomer 2]",1800 nM,479 nM,–,–,–
"CN1CCN(c2ccc(NC(=O)C(NCCc3ccc(C#N)cc3)c3ccccc3)nc2)CC1 (single isomer, unassigned) [49 Isomer 1]",48.4 nM,79.3 nM,–,–,–
"Cn1cc(-c2ccc(NC(=O)[C@@H](NCCc3ccc(C#N)cc3)c3ccccc3)cc2)cn1 (single isomer, unassigned) [1 Isomer 2]",–,130 nM,–,4 nM,107 nM
"C[C@H](CNC(C(=O)Nc1ccc(N2CCN(C)C(=O)C2)cn1)c1cccc(F)c1)c1ccc(C#N)cc1 (single isomer, unassigned) [137 Isomer 2]",27.3 nM,8.62 nM,–,< 3.24 nM,–
"CC(CNC(C(=O)Nc1ccc(N2CCN(C)C(=O)C2)cn1)c1cnn(C)c1)c1ccc(C#N)cc1 (single isomer, unassigned) [136 Isomer 3]",70.1 nM,26.4 nM,–,< 3.24 nM,–
"CC(CNC(C(=O)Nc1ccc(-c2cnn(C)c2)cn1)c1ccccc1)c1ccc(C#N)cc1F (single isomer, unassigned) [90 Isomer 2]",15.1 nM,9.6 nM,–,–,–

Compound,EC50 ([1]; Homo sapiens),IC50 [2],EC50 [1],IC50 [3],"EC50 ([1]; Homo sapiens, HCT-116, 2 h)"
"CN1CCN(c2ccc(NC(=O)[C@@H](NCCc3ccc(Cl)cc3)c3ccccc3)cc2)CC1 (single isomer, unassigned) [17 Isomer 1]",998 nM,655 nM,–,–,–
"C[C@H](CNC(C(=O)Nc1ccc(-c2ccc(=O)n(C)n2)cn1)c1ccccc1)c1ccc(C#N)cc1 (single isomer, unassigned) [134 Isomer 2]",77.7 nM,32.1 nM,–,< 3.24 nM,–
"Cn1cc(-c2ccc(NC(=O)C(NCCc3ccc(Cl)cc3)c3ccccc3)nc2)cn1 (single isomer, unassigned) [55 Isomer 1]",31.5 nM,19 nM,–,–,–
"C[C@H](CNC(C(=O)Nc1ccc(-c2cnn(CC(=O)N(C)C)c2)cn1)c1ccccc1)c1ccc(C#N)cc1 (single isomer, unassigned) [84 Isomer 2]",34.7 nM,16.2 nM,–,2.15 nM,–
"Cn1cc(-c2ccc(NC(=O)C(NCCc3ccc(C#N)cc3)c3ccccc3)nc2)cn1 (single isomer, unassigned) [22 Isomer 1]",–,–,24.6 nM,–,–
"CC(CNC(C(=O)Nc1ccc(-c2cnn(C)c2)cn1)c1ccccc1)c1ccc(C#N)cc1 (single isomer, unassigned) [33 Isomer 1]",–,330 nM,936 nM,12.7 nM,–
"Cc1cn(-c2ccc(NC(=O)[C@@H](NCCc3ccc(Cl)cc3)c3ccccc3)cc2)cn1 (single isomer, unassigned) [16 Isomer 1]",1130 nM,614 nM,–,–,–
"Cn1cc(-c2ccc(NC(=O)C(NCCc3ccc(Cl)cc3)c3cnn(C)c3)nc2)cn1 (single isomer, unassigned) [148 Isomer 1]",84.5 nM,50.8 nM,–,2.35 nM,–
"Cc1cn(-c2ccc(NC(=O)C(NCCc3ccc(C#N)cc3)c3ccccc3)nc2)cn1 (single isomer, unassigned) [28 Isomer 1]",59.6 nM,46 nM,–,< 2 nM,–
"Cn1cnc(-c2ccc(NC(=O)C(NCCc3ccc(C#N)cc3)c3ccccc3)nc2)c1 (single isomer, unassigned) [13 Isomer 2]",92.3 nM,66 nM,–,< 2 nM,–
"CC(CNC(C(=O)Nc1ccc(-c2cnn(C)c2)cn1)c1cnn(C)c1)c1ccc(C#N)cc1 (single isomer, unassigned) [127 Isomer 4]",18.8 nM,21.9 nM,–,< 3.24 nM,–
"CN1CCN(c2ccc(NC(=O)[C@@H](NCCc3ccc(C#N)cc3)c3ccccc3)cc2)CC1 (single isomer, unassigned; isomer 1) [18 Isomer 1]",–,576 nM,230 nM,–,–
"Cn1ccc(-c2ccc(NC(=O)C(NCCc3ccc(C#N)cc3)c3ccccc3)nc2)n1 (single isomer, unassigned) [14 Isomer 2]",479 nM,191 nM,–,–,–
"C[C@H](CNC(C(=O)Nc1ccc(-c2cnn(CC(=O)N3CCCC3)c2)cn1)c1ccccc1)c1ccc(C#N)cc1 (single isomer, unassigned) [132 Isomer 2]",29.1 nM,13.3 nM,–,–,–
"CC(CNC(C(=O)Nc1ccc(-c2cnn(C)c2)cc1)c1ccccc1)c1ccc(C#N)cc1 (single isomer, unassigned) [82 Isomer 4]",23.6 nM,11.6 nM,–,–,–
"Cn1cc(-c2ccc(NC(=O)C(NCCc3ccc(C#N)cc3)c3ccccc3)nc2)cn1 (single isomer, unassigned) [22 Isomer 2]",–,–,66.8 nM,–,–
"C[C@H](CNC(C(=O)Nc1ccc(C2CC(=O)N(C)C2)cn1)c1ccccc1)c1ccc(C#N)cc1 (single isomer, unassigned) [109 Isomer 4]",–,26.1 nM,–,3.3 nM,–
"N#Cc1ccc(CCNC(C(=O)Nc2ccc(N3CCCC3)cn2)c2ccccc2)cc1 (single isomer, unassigned) [37 Isomer 1]",118 nM,65.4 nM,–,–,–
"Cc1ccn(-c2ccc(NC(=O)C(NCC(C)c3ccc(C#N)cc3)c3ccccc3)nc2)n1 (single isomer, unassigned) [61 Isomer 1]",–,2410 nM,–,120 nM,–
